From US10765114B2, “4-amino-6-(pyridyl and 2-substitutedphenyl)-picolinates and 6-amino-2-(pyridyl and 2-substitutedphenyl)-pyrimidine-4-carboxylates and their use as herbicides” (Dow AgroSciences LLC, priority 2013, dated 2020)

Columns and labels:
Assay in all cases: Post-Emergent Test III (Wheat and Barley)
APESV (windgrass) = format: in vivo, Apera spica-venti
How it was run: (§1)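 GR10-GR90 values were derived by probit analysis of visual injury (0 = no injury, 100 = complete kill versus untreated), rated 21 days after spraying. Two- to three-true-leaf plants were sprayed at 187 L/ha with serial rates (1× to 1/16×) in aqueous acetone/isopropanol/DMSO with crop oil and X-77. Greenhouse conditions were 18 °C day/17 °C night.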

KCHSC (kochia) = format: in vivo, Kochia scoparia
How it was run: as §1

HORSS = format: in vivo
How it was run: as §1

TRZSS = format: in vivo
How it was run: as §1

PAPRH (common poppy) = format: in vivo, Papaver rhoeas; conditions: for Visual Growth Reduction (%) 21 Days After Application, PAPRH: postemergence
Procedure: (§2) Seeds of the desired test plant species were planted in Sun Gro MetroMix® 306 planting mixture, which typically has a pH of 6.0 to 6.8 and an organic matter content of about 30 percent, in plastic pots with a surface area of 103.2 square centimeters (cm^2). When required to ensure good germination and healthy plants, a fungicide treatment and/or other chemical or physical treatment was applied. The plants were grown for 7-36 days in a greenhouse with an approximate 14 h photoperiod which was maintained at about 18° C. during the day and 17° C. during the night. Nutrients and water were added on a regular basis and supplemental lighting was provided with overhead metal halide 1000-Watt lamps as necessary. The plants were employed for testing when they reached the second or third true leaf stage.
(§3) A weighed amount, determined by the highest rate to be tested, of each test compound was placed in a 25 mL glass vial and was dissolved in 4 mL of a 97:3 v/v mixture of acetone and DMSO to obtain concentrated stock solutions. […] The concentrated stock solutions obtained were diluted with 20 mL of an aqueous mixture containing acetone, water, isopropyl alcohol, DMSO, Agri-Dex crop oil concentrate, and X-77 surfactant in a 48:39:10:1.5:1.5:0.02 v/v ratio to obtain spray solutions containing the highest application rates. Additional application rates were obtained by serial dilution of 12 mL of the high rate solution into a solution containing 2 mL of 97:3 v/v mixture of acetone and DMSO and 10 mL of an aqueous mixture containing acetone, water, isopropyl alcohol, DMSO, Agri-Dex crop oil concentrate, and X-77 surfactant in a 48:39:10:1.5:1.5:0.02 v/v ratio to obtain ½×, ¼×, ⅛× and 1/16× rates of the high rate. Compound requirements are based upon a 12 mL application volume at a rate of 187 liters per hectare (L/ha). Formulated compounds were applied to the plant material with an overhead Mandel track sprayer equipped with 8002E nozzles calibrated to deliver 187 L/ha over an application area of 0.503 square meters at a spray height of 18 inches (43 cm) above the average plant canopy height. Control plants were sprayed in the same manner with the solvent blank.
(§4) The treated plants and control plants were placed in a greenhouse as described above and watered by subirrigation to prevent wash-off of the test compounds. After 21 dAYS, the condition of the test plants as compared with that of the untreated plants was determined visually and scored on a scale of 0 to 100 percent where 0 corresponds to no injury and 100 corresponds to complete kill and presented as indicated in Table A.
(§5) By applying the well-accepted probit analysis as described by J. Berkson in Journal of the American Statistical Society, 48, 565 (1953) and by D. Finney in “Probit Analysis” Cambridge University Press (1952), herbicidal injury of a specific compound at various rates can be used to calculate GR10, GR20, GR50, GR80 and GR90 values, which are defined as growth reduction factors that correspond to the effective dose of herbicide required to provide plant growth reduction (GR) of 10 percent, 20 percent, 50 percent, 80 percent and 90 percent, respectively. Probit analysis was applied to data collected from multiple dose rates of individual compounds utilizing the procedures explained in the following examples. The analysis of those dose rates is captured in the following tables.

POLCO (wild buckwheat) = format: in vivo, Polygonum convolvulus; conditions: for Visual Growth Reduction (%) 21 Days After Application, POLCO: postemergence
Procedure: as §2, §3, §4, §5

SASKR (Russian thistle) = format: in vivo, Salsola tragus; conditions: for Visual Growth Reduction (%) 21 Days After Application, SASKR: postemergence
Procedure: as §2, §3, §4, §5

[1] = test system: VERPE (Persian speedwell); format: in vivo, Veronica persica; conditions: for Visual Growth Reduction (%) 21 Days After Application, VERPE: postemergence
Procedure: as §2, §3, §4, §5

[2] = effective dose for growth reduction of 50 percent, probit analysis
[3] = effective dose for growth reduction of 80 percent, probit analysis
[4] = effective dose for growth reduction of 90 percent, probit analysis
[5] = effective dose for growth reduction of 10 percent, probit analysis
[6] = effective dose for growth reduction of 20 percent, probit analysis

Cc1c(-c2cc(N)c(Cl)c(C(=O)O)n2)ccc(Cl)c1F [Compound 52]
pest or weed control at 35 g/ha (APESV (windgrass); Apera spica-venti, post-emergence, 504 h, 35 g ai/ha, postemergence, read-out: Visual Growth Reduction (%) 21 Days After Application, APESV): 60 to 74%
pest or weed control at 70 g/ha (APESV (windgrass); Apera spica-venti, post-emergence, 504 h, 70 g ai/ha, postemergence, read-out: Visual Growth Reduction (%) 21 Days After Application, APESV): 75 to 84%
pest or weed control at 140 g/ha (APESV (windgrass); Apera spica-venti, post-emergence, 504 h, 140 g ai/ha, postemergence, read-out: Visual Growth Reduction (%) 21 Days After Application, APESV): 85 to 94%
GR50, APESV (APESV (windgrass); [2]): 23 g ai/ha
GR80, APESV (APESV (windgrass); [3]): 63 g ai/ha
GR90, APESV (APESV (windgrass); [4]): 107 g ai/ha
pest or weed control at 35 g/ha (KCHSC (kochia); Bassia scoparia, post-emergence, 504 h, 35 g ai/ha, postemergence, read-out: Visual Growth Reduction (%) 21 Days After Application, KCHSC): 95 to 100%
pest or weed control at 70 g/ha (KCHSC (kochia); Bassia scoparia, post-emergence, 504 h, 70 g ai/ha, postemergence, read-out: Visual Growth Reduction (%) 21 Days After Application, KCHSC): 95 to 100%
pest or weed control at 140 g/ha (KCHSC (kochia); Bassia scoparia, post-emergence, 504 h, 140 g ai/ha, postemergence, read-out: Visual Growth Reduction (%) 21 Days After Application, KCHSC): 95 to 100%
GR50, KCHSC (KCHSC (kochia); [2]): 1 g ai/ha
GR80, KCHSC (KCHSC (kochia); [3]): 3 g ai/ha
GR90, KCHSC (KCHSC (kochia); [4]): 9 g ai/ha
pest or weed control at 35 g/ha (HORSS; Hordeum vulgare, post-emergence, 504 h, 35 g ai/ha, postemergence, read-out: Visual Growth Reduction (%) 21 Days After Application, HORSS): 60 to 74%
pest or weed control at 70 g/ha (HORSS; Hordeum vulgare, post-emergence, 504 h, 70 g ai/ha, postemergence, read-out: Visual Growth Reduction (%) 21 Days After Application, HORSS): 75 to 84%
pest or weed control at 140 g/ha (HORSS; Hordeum vulgare, post-emergence, 504 h, 140 g ai/ha, postemergence, read-out: Visual Growth Reduction (%) 21 Days After Application, HORSS): 85 to 94%
GR10, HORSS (HORSS; [5]): 1 g ai/ha
GR20, HORSS (HORSS; [6]): 2 g ai/ha
pest or weed control at 35 g/ha (TRZSS; Triticum aestivum, post-emergence, 504 h, 35 g ai/ha, postemergence, read-out: Visual Growth Reduction (%) 21 Days After Application, TRZSS): 60 to 74%
pest or weed control at 70 g/ha (TRZSS; Triticum aestivum, post-emergence, 504 h, 70 g ai/ha, postemergence, read-out: Visual Growth Reduction (%) 21 Days After Application, TRZSS): 75 to 84%
pest or weed control at 140 g/ha (TRZSS; Triticum aestivum, post-emergence, 504 h, 140 g ai/ha, postemergence, read-out: Visual Growth Reduction (%) 21 Days After Application, TRZSS): 75 to 84%
GR10, TRZSS (TRZSS; [5]): 1 g ai/ha
GR20, TRZSS (TRZSS; [6]): 1 g ai/ha
Visual Growth Reduction (%) 21 Days After Application, PAPRH (PAPRH (common poppy); 35 g ai/ha): D (60-74)
Visual Growth Reduction (%) 21 Days After Application, PAPRH (PAPRH (common poppy); 70 g ai/ha): D (60-74)
Visual Growth Reduction (%) 21 Days After Application, PAPRH (PAPRH (common poppy); 140 g ai/ha): C (75-84)
GR50, PAPRH (PAPRH (common poppy); [2]): 4 g ai/ha
GR80, PAPRH (PAPRH (common poppy); [3]): >140 g ai/ha
GR90, PAPRH (PAPRH (common poppy); [4]): >140 g ai/ha
Visual Growth Reduction (%) 21 Days After Application, POLCO (POLCO (wild buckwheat); 35 g ai/ha): D (60-74)
Visual Growth Reduction (%) 21 Days After Application, POLCO (POLCO (wild buckwheat); 70 g ai/ha): C (75-84)
Visual Growth Reduction (%) 21 Days After Application, POLCO (POLCO (wild buckwheat); 140 g ai/ha): A (95-100)
GR50, POLCO (POLCO (wild buckwheat); [2]): 10 g ai/ha
GR80, POLCO (POLCO (wild buckwheat); [3]): 41 g ai/ha
GR90, POLCO (POLCO (wild buckwheat); [4]): 84 g ai/ha
Visual Growth Reduction (%) 21 Days After Application, SASKR (SASKR (Russian thistle); 35 g ai/ha): D (60-74)
Visual Growth Reduction (%) 21 Days After Application, SASKR (SASKR (Russian thistle); 70 g ai/ha): D (60-74)
Visual Growth Reduction (%) 21 Days After Application, SASKR (SASKR (Russian thistle); 140 g ai/ha): C (75-84)
GR50, SASKR (SASKR (Russian thistle); [2]): 1 g ai/ha
GR80, SASKR (SASKR (Russian thistle); [3]): >140 g ai/ha
GR90, SASKR (SASKR (Russian thistle); [4]): >140 g ai/ha
Visual Growth Reduction (%) 21 Days After Application, VERPE ([1]; 35 g ai/ha): G (0-29)
Visual Growth Reduction (%) 21 Days After Application, VERPE ([1]; 70 g ai/ha): G (0-29)
Visual Growth Reduction (%) 21 Days After Application, VERPE ([1]; 140 g ai/ha): E (45-59)
GR50, VERPE [1, 2]: >140 g ai/ha
GR80, VERPE [1, 3]: >140 g ai/ha
GR90, VERPE [1, 4]: >140 g ai/ha
